{
  "source": "paper PMC10017709",
  "about": "“Structural basis of selective cannabinoid CB2 receptor activation” (Nature Communications, 2023)",
  "key": {"CB2R-V261^6.51L": {"molecular_target": "CB2R-V261^6.51L (Homo sapiens, UniProt P34972, V261L)", "sequence (P34972 whole entry V261L)": "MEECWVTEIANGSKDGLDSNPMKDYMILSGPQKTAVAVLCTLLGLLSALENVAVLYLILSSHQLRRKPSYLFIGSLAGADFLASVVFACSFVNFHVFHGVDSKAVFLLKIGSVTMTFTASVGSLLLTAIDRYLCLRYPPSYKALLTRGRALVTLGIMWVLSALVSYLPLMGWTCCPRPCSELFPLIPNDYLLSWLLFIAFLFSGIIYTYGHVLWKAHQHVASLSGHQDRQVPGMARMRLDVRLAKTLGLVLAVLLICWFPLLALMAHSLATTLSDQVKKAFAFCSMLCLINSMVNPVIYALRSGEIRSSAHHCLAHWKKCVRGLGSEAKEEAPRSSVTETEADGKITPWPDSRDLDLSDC", "test": "[35S]GTPγS assay, CB2R V261L mutant", "type": "biochemical", "conditions": "V2616.51L, individual replicates"}, "CB2R-L182^ECL2I": {"molecular_target": "CB2R-L182^ECL2I (Homo sapiens, UniProt P34972, L182I)", "sequence (P34972 whole entry L182I)": "as the sequence (P34972 whole entry V261L) above, with L182I, L261V counted along it", "test": "[35S]GTPγS assay, CB2R L182I mutant", "type": "biochemical", "conditions": "L182I mutant; at 10 µM compared to WT; read-out: Emax (%)"}, "CB2R-E181^ECL2D": {"molecular_target": "CB2R-E181^ECL2D (Homo sapiens, UniProt P34972, E181D)", "sequence (P34972 whole entry E181D)": "as the sequence (P34972 whole entry V261L) above, with E181D, L261V counted along it", "test": "[35S]GTPγS assay, CB2R E181D mutant", "type": "biochemical", "conditions": "E181D mutant; at 10 µM compared to WT; read-out: Emax (%)"}, "CB2R-Quadruple^TM1,7 [1]": {"molecular_target": "T1, CB2R-Quadruple^TM1,7 (Homo sapiens, UniProt P34972, C40S/K279T/K33Q/V36I)", "T1 sequence (P34972 whole entry K33Q/V36I/C40S/K279T)": "as the sequence (P34972 whole entry V261L) above, with K33Q, V36I, C40S, L261V, K279T counted along it", "test": "[35S]GTPγS assay, CB2R quadruple mutant", "type": "biochemical", "conditions": "for [35S]GTPγS binding: QuadrupleTM1,7, individual replicates", "procedure": "In short, transient HEK293T membrane homogenates (10 µg/well) were diluted in assay buffer (50 mM Tris-HCl (pH 7.4), 5 mM MgCl2, 150 mM NaCl, 1 mM EDTA, 0.05% BSA (w/v) and 1 mM DTT, freshly prepared every day) and were pretreated with 10 µg saponin and 1 µM GDP. For endocannabinoid samples, the membranes were additionally pretreated for 30 min with 50 µM PMSF before agonist addition. […] Basal receptor activity was determined in the presence of vehicle only (0.2% DMSO/acetonitrile). […] Filtration was performed, and filter-bound radioactivity was determined as described under [^3H]RO6957022 Competition Association Assays except for using ice-cold 50 mM Tris-HCl (pH 7.4), 5 mM MgCl2 buffer."}, "CB2R WT": {"molecular_target": "CB2R WT (Homo sapiens, UniProt P34972)", "sequence (P34972 whole entry)": "as the sequence (P34972 whole entry V261L) above, with L261V counted along it", "test": "[3H]CP55,940 displacement assay, CB2R WT", "type": "binding", "conditions": "CB2R - WT, individual replicates"}, "CB2R-I110^3.29L": {"molecular_target": "CB2R-I110^3.29L (Homo sapiens, UniProt P34972, I110L)", "sequence (P34972 whole entry I110L)": "as the sequence (P34972 whole entry V261L) above, with I110L, L261V counted along it", "test": "[3H]CP55,940 displacement assay, CB2R I110L mutant", "type": "binding", "conditions": "I1103.29L, individual replicates"}, "CB2R-Quadruple^TM1,7 [2]": {"molecular_target": "T1, CB2R-Quadruple^TM1,7", "test": "[3H]CP55,940 displacement assay, CB2R quadruple mutant", "type": "binding", "conditions": "QuadrupleTM1,7, individual replicates"}, "CB1R I267ECL2L": {"molecular_target": "CB1R I267ECL2L (Homo sapiens, UniProt P21554, I267L)", "sequence (P21554 whole entry I267L)": "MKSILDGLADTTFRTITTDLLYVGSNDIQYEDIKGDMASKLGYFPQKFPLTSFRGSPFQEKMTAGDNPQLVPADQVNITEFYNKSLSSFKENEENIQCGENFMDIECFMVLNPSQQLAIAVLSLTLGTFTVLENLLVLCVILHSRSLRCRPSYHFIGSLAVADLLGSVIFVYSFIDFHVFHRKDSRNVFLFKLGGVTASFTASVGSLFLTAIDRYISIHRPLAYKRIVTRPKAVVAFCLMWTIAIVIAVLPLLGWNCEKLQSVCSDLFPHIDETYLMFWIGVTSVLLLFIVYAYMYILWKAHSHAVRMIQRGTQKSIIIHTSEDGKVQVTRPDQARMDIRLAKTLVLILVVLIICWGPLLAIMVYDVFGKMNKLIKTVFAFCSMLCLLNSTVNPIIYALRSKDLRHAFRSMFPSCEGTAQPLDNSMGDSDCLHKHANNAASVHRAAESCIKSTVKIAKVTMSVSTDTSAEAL", "test": "[3H]CP55,940 displacement assay, CB1R I267L mutant", "type": "binding"}, "hCB1R WT": {"molecular_target": "hCB1R WT (Homo sapiens, UniProt P21554)", "sequence (P21554 whole entry)": "as the sequence (P21554 whole entry I267L) above, with L267I counted along it", "test": "[35S]GTPγS G protein activation assay, CB1R WT", "type": "biochemical", "conditions": "CB1R WT; 10 µM agonist"}, "CB1R-L359^6.51V": {"molecular_target": "CB1R-L359^6.51V (Homo sapiens, UniProt P21554, L359V)", "sequence (P21554 whole entry L359V)": "as the sequence (P21554 whole entry I267L) above, with L267I, L359V counted along it", "test": "[35S]GTPγS assay, CB1R L359V mutant", "type": "biochemical", "conditions": "CB1R L359V; 10 µM agonist"}, "CB1R-H270^ECL2L": {"molecular_target": "CB1R-H270^ECL2L (Homo sapiens, UniProt P21554, H270L)", "sequence (P21554 whole entry H270L)": "as the sequence (P21554 whole entry I267L) above, with L267I, H270L counted along it", "test": "[35S]GTPγS assay, CB1R H270L mutant", "type": "biochemical", "conditions": "CB1R H270L; 10 µM agonist"}, "CB1R QuadrupleTM1,7": {"test_system": "CB1R QuadrupleTM1,7", "test": "[35S]GTPγS assay, CB1R quadruple mutant", "type": "biochemical, human", "conditions": "CB1R Quadruple TM1,7; 10 µM agonist"}},
  "note": "Values joined by “and” are separate entries in the source; they are usually repeats but may differ in a detail not shown here. Identical values can stand only once.",
  "data": [
    {"smiles": "CC(C)(C)[C@@H](CO)NC(=O)c1nn(-c2c[n+]([O-])ccn2)c2c1C[C@@H]1C[C@H]21", "note": "[APD371]", "values": [
      {"measurement": "[35S]GTPγS binding", "setting": "CB2R-V261^6.51L; log [ligand] (M) -5", "value": "2.52 percentage of WT and 5.75 percentage of WT and 9.01 percentage of WT"},
      {"measurement": "[35S]GTPγS binding", "setting": "CB2R-V261^6.51L; log [ligand] (M) -6", "value": "-3.29 percentage of WT and 5.08 percentage of WT and 17.22 percentage of WT"},
      {"measurement": "[35S]GTPγS binding", "setting": "CB2R-V261^6.51L; log [ligand] (M) -7", "value": "3.77 percentage of WT and -3.23 percentage of WT and 7.12 percentage of WT"},
      {"measurement": "[35S]GTPγS binding", "setting": "CB2R-V261^6.51L; log [ligand] (M) -8", "value": "-13.41 percentage of WT and -9.01 percentage of WT and -7.07 percentage of WT"},
      {"measurement": "[35S]GTPγS binding", "setting": "CB2R-V261^6.51L; log [ligand] (M) -9", "value": "-3.12 percentage of WT and -6.34 percentage of WT and -8.82 percentage of WT"},
      {"measurement": "[35S]GTPγS binding", "setting": "CB2R-V261^6.51L; log [ligand] (M) -10", "value": "6.63 percentage of WT and -9.97 percentage of WT and -1.94 percentage of WT"},
      {"measurement": "Emax", "setting": "CB2R-L182^ECL2I", "value": "17 ± 4", "unit": "%"},
      {"measurement": "Emax", "setting": "CB2R-E181^ECL2D", "value": "39 ± 6", "unit": "%"},
      {"measurement": "Emax", "setting": "CB2R-Quadruple^TM1,7 [1]; Quadruple TM1,7 mutant, at 10 µM compared to WT, read-out: Emax (%)", "value": "35 ± 7", "unit": "%"},
      {"measurement": "[35S]GTPγS binding", "setting": "CB2R-Quadruple^TM1,7 [1]; log [ligand] (M) -5", "value": "35.07 percentage of WT and 47.26 percentage of WT and 22.67 percentage of WT"},
      {"measurement": "[35S]GTPγS binding", "setting": "CB2R-Quadruple^TM1,7 [1]; log [ligand] (M) -6", "value": "15.07 percentage of WT and 38.79 percentage of WT and 23.35 percentage of WT"},
      {"measurement": "[35S]GTPγS binding", "setting": "CB2R-Quadruple^TM1,7 [1]; log [ligand] (M) -7", "value": "-3.98 percentage of WT and 20.94 percentage of WT and 22.86 percentage of WT"},
      {"measurement": "[35S]GTPγS binding", "setting": "CB2R-Quadruple^TM1,7 [1]; log [ligand] (M) -8", "value": "22.19 percentage of WT and 25.68 percentage of WT and 22.32 percentage of WT"},
      {"measurement": "[35S]GTPγS binding", "setting": "CB2R-Quadruple^TM1,7 [1]; log [ligand] (M) -9", "value": "-7.96 percentage of WT and -0.64 percentage of WT and 0.99 percentage of WT"},
      {"measurement": "[35S]GTPγS binding", "setting": "CB2R-Quadruple^TM1,7 [1]; log [ligand] (M) -10", "value": "-4.29 percentage of WT and 0.80 percentage of WT and 9.16 percentage of WT"},
      {"measurement": "percentage specific [3H]CP55,940 binding", "setting": "CB2R WT; log [ligand] (M) -5", "value": "6.97% and 9.11% and 6.37%"},
      {"measurement": "percentage specific [3H]CP55,940 binding", "setting": "CB2R WT; log [ligand] (M) -6", "value": "8.91% and 9.80% and 15.97%"},
      {"measurement": "percentage specific [3H]CP55,940 binding", "setting": "CB2R WT; log [ligand] (M) -7", "value": "35.26% and 29.34% and 24.47%"},
      {"measurement": "percentage specific [3H]CP55,940 binding", "setting": "CB2R WT; log [ligand] (M) -8", "value": "67.55% and 60.65% and 76.97%"},
      {"measurement": "percentage specific [3H]CP55,940 binding", "setting": "CB2R WT; log [ligand] (M) -9", "value": "110.80% and 85.34% and 106.79%"},
      {"measurement": "percentage specific [3H]CP55,940 binding", "setting": "CB2R WT; log [ligand] (M) -10", "value": "91.01% and 87.78% and 110.76%"},
      {"measurement": "percentage specific [3H]CP55,940 binding", "setting": "CB2R-I110^3.29L; log [ligand] (M) -5", "value": "4.49% and 2.95% and 7.70%"},
      {"measurement": "percentage specific [3H]CP55,940 binding", "setting": "CB2R-I110^3.29L; log [ligand] (M) -6", "value": "22.45% and 22.51% and 25.37%"},
      {"measurement": "percentage specific [3H]CP55,940 binding", "setting": "CB2R-I110^3.29L; log [ligand] (M) -7", "value": "63.92% and 66.51% and 68.51%"},
      {"measurement": "percentage specific [3H]CP55,940 binding", "setting": "CB2R-I110^3.29L; log [ligand] (M) -8", "value": "89.64% and 87.54% and 115.07%"},
      {"measurement": "percentage specific [3H]CP55,940 binding", "setting": "CB2R-I110^3.29L; log [ligand] (M) -9", "value": "93.11% and 90.99% and 98.90%"},
      {"measurement": "percentage specific [3H]CP55,940 binding", "setting": "CB2R-I110^3.29L; log [ligand] (M) -10", "value": "86.70% and 95.29% and 99.01%"},
      {"measurement": "percentage specific [3H]CP55,940 binding", "setting": "CB2R-Quadruple^TM1,7 [2]; log [ligand] (M) -5", "value": "-3.75% and 13.92% and 33.90%"},
      {"measurement": "percentage specific [3H]CP55,940 binding", "setting": "CB2R-Quadruple^TM1,7 [2]; log [ligand] (M) -6", "value": "31.56% and 68.45% and 21.77%"},
      {"measurement": "percentage specific [3H]CP55,940 binding", "setting": "CB2R-Quadruple^TM1,7 [2]; log [ligand] (M) -7", "value": "107.34% and 102.91% and 64.85%"},
      {"measurement": "percentage specific [3H]CP55,940 binding", "setting": "CB2R-Quadruple^TM1,7 [2]; log [ligand] (M) -8", "value": "162.50% and 142.72% and 87.25%"},
      {"measurement": "percentage specific [3H]CP55,940 binding", "setting": "CB2R-Quadruple^TM1,7 [2]; log [ligand] (M) -9", "value": "116.72% and 143.53% and 100.93%"},
      {"measurement": "percentage specific [3H]CP55,940 binding", "setting": "CB2R-Quadruple^TM1,7 [2]; log [ligand] (M) -10", "value": "74.84% and 102.27% and 99.53%"},
      {"measurement": "percentage specific [3H]CP55,940 binding", "setting": "CB1R I267ECL2L; CB1R I267ECL2L, 10 µM ligand, replicates 1-3", "value": "153.09 percentage and 95.47 percentage and 123.57 percentage"},
      {"measurement": "Displacement (%) of [3H]CP55,940", "setting": "CB1R I267ECL2L; CB1R I267L, 10 µM compound", "value": "-24 ± 17", "unit": "%"},
      {"measurement": "Agonist-mediated activation", "setting": "hCB1R WT", "value": "1.0 ± 0.0", "unit": "fold over its basal"},
      {"measurement": "Agonist-mediated activation", "setting": "CB1R-L359^6.51V", "value": "1.1 ± 0.1", "unit": "fold over its basal"},
      {"measurement": "Agonist-mediated activation", "setting": "CB1R-H270^ECL2L", "value": "1.1 ± 0.0", "unit": "fold over its basal"},
      {"measurement": "Agonist-mediated activation", "setting": "CB1R QuadrupleTM1,7", "value": "1.1 ± 0.0", "unit": "fold over its basal"}
    ]}
  ]
}
